The assay deals with T1, Bradykinin receptor (Cavia porcellus, UniProt O70526).
T1 construct: The ileum was removed and homogenized in buffer; from tissue; host or cells: guinea pig ileum, crude membrane suspension (male Hartley strain, given 'Hartly' in the source)
T1 sequence (O70526 1-372): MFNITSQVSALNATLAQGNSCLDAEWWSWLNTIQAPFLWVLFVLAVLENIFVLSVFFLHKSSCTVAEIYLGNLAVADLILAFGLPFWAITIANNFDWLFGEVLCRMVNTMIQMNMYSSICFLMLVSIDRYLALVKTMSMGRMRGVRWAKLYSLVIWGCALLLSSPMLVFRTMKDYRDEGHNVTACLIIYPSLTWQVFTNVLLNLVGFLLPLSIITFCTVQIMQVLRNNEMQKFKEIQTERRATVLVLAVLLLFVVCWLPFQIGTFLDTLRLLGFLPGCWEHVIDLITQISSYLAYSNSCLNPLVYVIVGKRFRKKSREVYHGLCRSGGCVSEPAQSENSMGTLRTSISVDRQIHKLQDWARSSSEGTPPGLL
The assay can be described thus: 3H-Bradykinin receptor binding (crude ileum membrane). On the set-up: species or system guinea pig (male Hartly strain). Particulars: concentration: 1 × 10^-5 M; 0.06 nM 3H-Bradykinin; guinea pig ileum membrane; room temperature, 60 minutes. The method, then: ^3 H-Bradykinin receptor binding
(a) Crude ileum membrane preparation
Male Hartly strain guinea pigs were sacrificed by decapitation. The ileum was removed and homogenized in buffer (50 mM trimethylaminoethanesulfonic acid (TES), 1 mM 1,10-phenanthroline pH 6.8). The homogenate was centrifuged (1000 xg, 20 minutes) to remove tissue clumps and the supernatant was centrifuges (100,000 xg, 60 minutes) to yield a pellet. The pellet was resuspended in buffer (50 mM TES, 1 mM 1,10-phenanthroline,140 mg/l bacitracin, 1 mM dithiothreiol, 0.1% bovine serum albumin pH 6.8) and homogenized with a glass-teflon homogenizer to yield suspension which was referred to as crude membrane suspension. The obtained membrane suspension was stored at -80° C. until use.
(b) ^3 H-Bradykinin binding to the membrane
The frozen crude membrane suspension was thawed. In binding assays, ^3 H-Bradykinin (0.06 nM) and drug (1×10^-5 M) were incubated with 50 μl of the membrane suspension at room temperature for 60 minutes in a final volume of 250 μl. Separation of receptor-bound from free 3H-Bradykinin is achieved by immediate filtration under vacuum and washed three times with 5 ml of ice-cold buffer (50 mM Tris-HCl pH 7.5). Non-specific binding was defined as binding in the presence of 0.1 μM Bradykinin. The radioactivity retained on rinsed filters was determined by a liquid-scintillation counter.

Structures can show the parent of a compound that is named as a salt.

Three molecules from patent US6194396A, “Benzimidazole compounds as bradykinin antagonists” (Fujisawa Pharmaceutical Co., Ltd., priority 1994, dated 2001) can be followed below.

`CNC(=O)c1ccc(/C=C/C(=O)NCC(=O)N(C)c2ccc(Cl)c(COc3cccc4c(C)c(C)oc34)c2Cl)cc1` [15-(20), 7-[2,6-Dichloro-3-[N-[4-(methylcarbamoyl)cinnamoylglycyl]-N-methylamino]benzyloxy]-2,3-dimethylbenzofuran]: the “Inhibition % of ^3 H-Bradykinin binding” value is on record as 98%. The result for `CNC(=O)c1ccc(/C=C/C(=O)NCC(=O)N(C)c2ccc(Cl)c(COc3cccc4c3nc(C)n4C)c2Cl)cc1` [Example 7, 4-[2,6-dichloro-3-[N-methyl-N-[4-(methyl-carbamoyl)cinnamoylglycy]amino]benzyloxy]-1,2-dimethyl-1H-benzimidazole] reads 99%; that for `CNC(=O)c1ccc(/C=C/C(=O)NCC(=O)N(C)c2ccc(C)c(COc3cccc4c3nc(C(C)=O)n4C)c2C)cc1` [15-(9) hydrochloride], 94%.
